Here are results for 22 compounds from ChEMBL document CHEMBL1156061, “Design and synthesis of substituted nicotinamides as inhibitors of soluble epoxide hydrolase” (Bioorg Med Chem Lett, 2009).

Series [1] addresses T1, Bifunctional epoxide hydrolase 2 (Homo sapiens, UniProt P34913).
T1 sequence (P34913 whole entry): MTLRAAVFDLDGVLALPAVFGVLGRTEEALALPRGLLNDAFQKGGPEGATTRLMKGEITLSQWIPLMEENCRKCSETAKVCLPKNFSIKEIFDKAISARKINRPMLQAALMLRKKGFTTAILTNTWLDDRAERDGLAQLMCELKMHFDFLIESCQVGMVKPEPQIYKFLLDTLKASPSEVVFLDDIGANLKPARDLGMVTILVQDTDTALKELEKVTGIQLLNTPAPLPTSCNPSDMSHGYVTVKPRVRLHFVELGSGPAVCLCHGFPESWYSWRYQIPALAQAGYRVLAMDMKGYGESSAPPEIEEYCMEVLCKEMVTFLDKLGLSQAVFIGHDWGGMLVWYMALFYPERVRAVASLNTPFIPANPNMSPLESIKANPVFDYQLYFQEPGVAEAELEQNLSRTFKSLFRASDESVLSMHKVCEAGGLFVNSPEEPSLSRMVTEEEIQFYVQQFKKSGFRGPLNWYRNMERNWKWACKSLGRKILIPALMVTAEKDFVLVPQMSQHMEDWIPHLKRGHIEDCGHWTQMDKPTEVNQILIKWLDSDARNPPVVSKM
The experiment in a line: Inhibition of human soluble EH.

The target of series [2] is T2, Bifunctional epoxide hydrolase 2 (Rattus norvegicus, UniProt P80299).
T2 sequence (P80299 whole entry): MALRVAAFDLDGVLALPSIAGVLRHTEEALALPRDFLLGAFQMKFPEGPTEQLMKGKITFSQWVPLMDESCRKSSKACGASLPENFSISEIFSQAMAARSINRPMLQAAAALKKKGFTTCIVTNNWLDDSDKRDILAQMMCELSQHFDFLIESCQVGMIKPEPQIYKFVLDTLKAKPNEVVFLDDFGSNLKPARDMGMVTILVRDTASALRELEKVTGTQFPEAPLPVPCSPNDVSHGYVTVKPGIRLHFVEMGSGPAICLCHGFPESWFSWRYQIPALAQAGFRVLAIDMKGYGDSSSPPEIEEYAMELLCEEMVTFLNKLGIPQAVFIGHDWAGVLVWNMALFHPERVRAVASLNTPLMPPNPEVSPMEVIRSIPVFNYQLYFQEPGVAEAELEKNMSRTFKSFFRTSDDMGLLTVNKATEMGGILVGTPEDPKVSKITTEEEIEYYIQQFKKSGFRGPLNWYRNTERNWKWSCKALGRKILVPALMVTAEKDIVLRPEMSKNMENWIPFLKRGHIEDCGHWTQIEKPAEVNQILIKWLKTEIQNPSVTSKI
In words: Inhibition of rat sEH.

Series [3] concerns the target T1, Bifunctional epoxide hydrolase 2. In words: Inhibition of soluble EH in human HepG2 cells by cellular assay. It counts as cell-based.
The nature of series [4]: Metabolic stability in rat liver microsomes assessed as half life. It counts as ADME, Microsome.
Series [5] in a line: Metabolic stability in human liver microsomes assessed as half life. It counts as ADME, Microsome.
The nature of series [6]: Plasma concentration in Sprague-Dawley rat at 5 mg/kg, po after 1 hr. It counts as ADME, organism-based. Further details: dose 5 mg/kg, route oral.

Structures are written as SMILES.

Regarding `CS(=O)(=O)c1ccccc1CNC(=O)c1ccc(OCCC(F)(F)F)nc1`, the midpoint of inhibition in series [1], the IC50, lay at 0.27 µM.
As for `CS(=O)(=O)c1ccc(-c2ccc(CNC(=O)c3ccc(OCCC(F)(F)F)nc3)cc2)cc1`, the concentration for half-maximal inhibition (IC50) in series [2] worked out at 0.0043 µM; in series [3], 0.024 µM; in series [1], 0.012 µM.
On to `CS(=O)(=O)c1ccc(CNC(=O)c2ccc(OCCC(F)(F)F)nc2)cc1`, for which the half-life turned out to be 2.88 h in series [4] and 2.6 h in series [5]. In addition, the results for the half-inhibitory concentration (IC50) in series [2] and in series [1] were 0.025 µM and 0.11 µM, respectively.
On to `O=C(NCc1ccc(Cl)cc1Cl)c1ccc(=O)[nH]c1`, for which the half-life is 3.18 h in series [4] and 1.3 h in series [5]. Also, the IC50 in series [2] worked out at 0.33 µM; in series [1] it was 0.4 µM.
Consider `Nc1ccc(C(=O)NCc2ccc(Cl)cc2Cl)cn1`, for which the figures for the half-life in series [4] and in series [5] were 0.733 h and 0.767 h, respectively. The IC50 in series [2] was 0.43 µM.
With `O=C(NCc1ccccc1OC(F)(F)F)c1ccc(OCC(F)(F)F)nc1`, the half-life in series [4] stood at 0.117 h; in series [5] it was 1.3 h. The compound further gave a half-inhibitory concentration (IC50) in series [2] of 0.006 µM.
In the same order, the values of `Nc1ccc(C(=O)NCCC(c2ccccc2)c2ccccc2)cn1` are 0.0833 h, 0.55 h and 0.0085 µM.
Take `CS(=O)(=O)c1ccc(CNC(=O)c2ccc(OCC(F)(F)F)nc2)c(Cl)c1`: the figures for the half-life in series [4] and in series [5] were 1.25 h and 1.6 h, respectively. Also, the 50% inhibitory concentration (IC50) in series [2] worked out at 0.016 µM; in series [3] it was 0.028 µM; in series [1], 0.015 µM.
For the compound `O=C(NCCC(c1ccccc1)c1ccccc1)c1ccc(=O)[nH]c1`, the half-life in series [4] came out at 0.117 h; in series [5], 1.6 h. The IC50 in series [2] was 0.01 µM; in series [1], 0.0081 µM.
In series [2], `O=C(NCc1ccc(Cl)cc1)c1ccc(OCCC(F)(F)F)nc1` displayed an IC50 of 0.007 µM. That is a single-digit nanomolar value.
For the compound `CCOCCn1cc(C(=O)NCCC(c2ccccc2)c2ccccc2)ccc1=O`, the half-life in series [4] was found to be 0.0833 h; in series [5], 0.0667 h. 0.004 µM corresponded to half-maximal inhibition in series [2] (IC50).
For `O=C(NCCC(c1ccccc1)c1ccccc1)c1ccc(OCC(F)(F)F)nc1`, the half-life was under 0.05 h in series [4] and 0.633 h in series [5]. Moreover, the IC50 was found to be 0.0078 µM in series [2] and 0.0054 µM in series [1].
Consider `O=C(NC1CCOCC1)C1CCN(C(=O)NCc2ccc(Cl)cc2Cl)CC1`, for which the values for the half-life in series [4] and in series [5] were 1.73 h and 5 h, respectively.
With `O=C(NCc1ccc(Br)cc1OC(F)(F)F)c1ccc(OCC(F)(F)F)nc1`, the half-life in series [4] was 0.283 h; in series [5] it was 5 h. Besides, the concentration for half-maximal inhibition (IC50) in series [2] was 0.007 µM; in series [3] it was 0.0001 µM; in series [1], 0.012 µM.
`O=C(NCCC(c1ccccc1)c1ccccc1)c1ccc(CCN2CCCC2)nc1`: the half-life in series [4] stood at 0.683 h; in series [5], 0.767 h. In addition, the 50% inhibitory concentration (IC50) was determined as 0.009 µM in series [2] and 0.018 µM in series [1].
Turning to `CNS(=O)(=O)c1ccc(CNC(=O)c2ccc(OCC(F)(F)F)nc2)c(Cl)c1`, the half-life in series [4] came out at 0.417 h; in series [5], 1.35 h. For the same compound, the half-inhibitory concentration (IC50) was determined as 0.019 µM in series [2], 0.031 µM in series [3] and 0.014 µM in series [1].
Take `O=C(NCc1ccc(Cl)cc1Cl)c1ccc(OCC(F)(F)F)nc1`: the figures for the half-life in series [4] and in series [5] were 0.117 h and 2.97 h, respectively. Moreover, the IC50 came out at 0.0073 µM in series [2], 0.018 µM in series [3] and 0.0066 µM in series [1]. Also, the concentration at 1 h in series [6] amounted to 2500 nM.
With `N#Cc1ccc(CNC(=O)c2ccc(OCC(F)(F)F)nc2)c(Cl)c1`, the half-life in series [4] came to 1.75 h; in series [5], 3.13 h. Also, the IC50 worked out at 0.012 µM in series [3] and 0.014 µM in series [1].
`CS(=O)(=O)c1cc(Cl)ccc1CNC(=O)c1ccc(OCC(F)(F)F)nc1`: the half-life in series [4] was determined as 1.65 h; in series [5], 5 h. In series [2], this compound yielded a concentration for half-maximal inhibition (IC50) of 0.011 µM.
In the case of `CCOCCn1cc(C(=O)NCc2ccc(Cl)cc2Cl)ccc1=O`, the half-life stood at 0.317 h in series [4] and 0.4 h in series [5]. Also, the figures for the 50% inhibitory concentration (IC50) in series [2] and in series [1] were 0.006 µM and 0.016 µM, respectively.
In turn, `O=C(NCc1ccccc1)c1ccc(OCCC(F)(F)F)nc1` returned an IC50 in series [1] of 1.2 µM.
Regarding `O=C(NCc1ccc(Cl)cc1Cl)c1ccc(CCN2CCCC2)nc1`, the concentration for half-maximal inhibition (IC50) in series [1] amounted to 1.5 µM.
